# According to paper PMC11173897, “Computational Docking as a Tool in Guiding the Drug Design of Rutaecarpine Derivatives as Potential SARS-CoV-2 Inhibitors” (Molecules, 2024):
# Assays:
# S-protein–ACE2 complex [1] = target: T1, S-protein–ACE2 complex (Severe acute respiratory syndrome coronavirus 2, UniProt P0DTC2); assay: S-protein-based ELISA (spike–ACE2 binding assay kit); parameters: species or system SARS-CoV-2; conditions: for maximal inhibition, higher than that of RU: S-protein-based ELISA, compared with RU; for IC50: tested at 0.1, 1, 5, 10, 20 µM, n = 4, read-out: IC50, disrupting the S-protein–ACE2 complex
# T1 construct: purchased ImmunoDiagnostics Ltd., Hong Kong, China
# Excerpt: An S-protein-based ELISA was utilized to determine the binding activities of RU-75 and RU-184 to the S-protein–ACE2 complex. A standard inhibitor, provided by the supplier (calibrated to NIBSC code 20/136), was employed as a positive control (Figure 6A). […] The maximal inhibition, triggered by RU-75 and RU-184, was at least 20% higher than that of RU.
# (A) A standard inhibitor, provided by supplier (calibrated to NIBSC code 20/136), was used as a positive control. (B) Rutaecarpine, RU-75 and RU-184 were detected at concentrations of 0.1, 1, 5, 10, 20 µM. The IC50 values are shown.
# Spike (S)-protein inhibition was analyzed with the SARS-CoV-2 spike–ACE2 binding assay kit (ImmunoDiagnostics Ltd., Hong Kong, China), according to the manufacturer’s instructions. The reaction was terminated by the addition of 2 M H2SO4, and the data were quantified using a microplate reader (FlexStation; Molecular Devices, San Jose, CA). The percentage of inhibition was calculated as follows:
# Percentage of inhibition = (PAvg − SAvg)/PAvg × 100%, where PAvg and SAvg are the mean OD values of the positive control and test sample, respectively.
# [2] = system: TNF-α, IL-6 and IL-1β mRNA in RAW264.7 cells; format: cell-based
# [3] = system: TNF-α, IL-6 and IL-1β mRNA in RAW264.7 cells; format: cell-based; conditions: co-treated with LPS 0.1 µg/mL, 24 h, Figure S2
# SARS-CoV-2 3CL protease [4] = target: T2, SARS-CoV-2 3CL protease (Severe acute respiratory syndrome coronavirus 2, UniProt P0DTD1); assay: 3CL protease assay (SensoLyte fluorogenic kit); format: biochemical; conditions: n = 4
# cells = conditions: MTT assay, Figure S1
# SARS-CoV-2 3CL protease [5] = target: T2, SARS-CoV-2 3CL protease; conditions: cited from earlier work
# [6] = system: TNF-α, IL-6 and IL-1β mRNA in RAW264.7 cells; conditions: previous investigation; cited from earlier work
# S-protein–ACE2 complex [7] = target: T1, S-protein–ACE2 complex; conditions: cited from earlier work
# [8] = system: wild-type SARS-CoV-2 pseudovirus; conditions: cited from earlier work
SMILES,"maximal inhibition, higher than that of RU (S-protein–ACE2 complex [1])",IC50 (S-protein–ACE2 complex [1]) [nM],"production of inflammatory cytokines (TNF-α, IL-6 and IL-1β) [2]",inflammatory suppression [3],IC50 (SARS-CoV-2 3CL protease [4]) [nM],cell toxicity (cell viability) (cells),3CL protease inhibition (SARS-CoV-2 3CL protease [5]),inflammatory response induced by SARS-CoV-2 [6],formation of the S-protein–ACE2 complex (S-protein–ACE2 complex [7]),entry of SARS-CoV-2 into host cells [8]
O=C1c2ccc(Nc3ccccc3)cc2NC2=NCCc3c2n1c1ccccc31 [RU-184],at least 20%,780,significantly reduced,no significant inflammatory suppression,1030,little impact on the cell viability,–,–,–,–
"O=c1c2ccccc2nc2n1CCc1c-2[nH]c2ccccc12 [RU, rutaecarpine]",–,1260,–,–,1600,little impact on the cell viability,inhibit the 3CL protease,attenuated the inflammatory response,inhibited the formation of the S-protein–ACE2 complex,prevented the entry of SARS-CoV-2 into host cells
O=c1c2ccc(Nc3ccccc3)cc2nc2n1CCc1c-2[nH]c2ccccc12 [RU-75],at least 20%,1030,significantly reduced,no significant inflammatory suppression,1310,little impact on the cell viability,–,–,–,–
